# Columns and labels:
# [1] = system: ACPA-expressing B cells in peripheral blood of RA patients; assay: Identification and immunophenotyping of primary ACPA-expressing B cells in peripheral blood of RA patients; format: cell-based, human; settings: median; n = 5; PICs and SA tetramer
# Experimental: Having determined the specificity of CCP-PIC-AF647 and its ability to detect small subpopulations of B cells, we used the combination of PICs to identify and characterize the primary ACPA-expressing B cells in the peripheral blood of five RA patients. […] The median frequency was determined at approximately 0.007% cells out of total B cells (Figure 5A,B). To assess whether the characteristics of the patient’s ACPA-expressing B cells were consistent with previous data, we also examined various B-cell subset-defining markers such as CD20, CD27, IgG-class B-cell receptors, and the activation surface marker CD80 (Figure 5B).
# Each dot represents one patient sample. Connected dots depict data from individual patient samples. Statistical differences between groups were determined using the Wilcoxon test. (ns, p > 0.05).
# To identify and characterize ACPA-expressing B cells in RA blood, PBMC were isolated from peripheral blood of RA donors as above.
# For stimulation experiments, ACPA-expressing Ramos B cells were used. Ramos cells were transduced with ACPA-encoding lentiviral vectors 8. Ramos cells were cultured in RPMI 1640 (Thermofisher) supplemented with 8% FCS, 100 U/ml PS, 2 mM GlutaMax and 10 mM HEPES).
# To determine which ratio of CCP and fluorophore in PIC to use, two ratios of CCP-AF647 were tested, i.e. 10:1 and 2:1. […]
# [2] = system: patient-derived ACPA and immortalized ACPA-expressing B cells; settings: cited from earlier work
# From the text: To study the application of PICs for the detection of ACPA-expressing B cells, we prepared a set of fluorescently labeled PICs containing CCP and arginine-containing control peptides (CArgP, Figure 1B), as well as tetrameric CCP-SA and CArgP-SA containing the same fluorophores (Figure 1C).[15] […] In CArgP, the citrulline residue that is essential for recognition by ACPA is replaced by an arginine. Besides the ...
# [3] = system: B-cell compartments; settings: clinical use; cited from earlier work
# From the text: These autoreactive MBCs likely exert pathogenic effector functions through the co-stimulation of T cells, the production of pro-inflammatory cytokines, and the recruitment of neutrophils to sites of the local inflammation.[1] The involvement of these cells in the inflammatory disease process is addi ...
substance,measurement,setting,value
polyisocyanopeptides [PICs],ACPA-expressing B cells positive for memory B cell markers CD20 and CD27,[1],50%
cyclic citrullinated peptide [CCP],recognition by ACPA and ACPA-expressing B cells,[2],recognized by both patient-derived ACPA and immortalized ACPA-expressing B cells
Rituximab: broadly B-cell depleting agent approved for clinical use,depletion of B-cell compartments,[3],depletes the naïve and MBC compartments but leaves the compartment of antibody-secreting cells largely intact

# — article PMC9006213, “Multifunctional, Multivalent PIC Polymer Scaffolds for Targeting Antigen-Specific, Autoreactive B Cells” (ACS Biomaterials Science & Engineering, 2022)
